Test results from patent US9999609B2, “Methods for treating or preventing fatigue” (SK Biopharmaceuticals Co., Ltd., priority 2009, dated 2018).

Columns and labels:
Format in all cases: in vivo
[1] = system: adult human subjects with moderate or severe major depression without psychotic features; assay: Randomized double-blind placebo- and active-controlled 6-week study in major depression; conditions: for ABCD questionnaire items (of 51) with statistically significant superiority to placebo: post hoc analyses
Excerpt: This was a randomized, double-blind, parallel-group, active, and placebo-controlled, multicenter study conducted in the U.S. (23 centers) and Canada (4 centers). There were 2 phases: a pretreatment phase (screening/washout and a baseline visit) and a 6-week, double-blind treatment phase. Paroxetine, a positive control, was included to evaluate assay sensitivity. After washout (if needed) of prohibited substances, subjects were randomly assigned (1:1:1:1) to receive the test compound titrated to a target dose of 200 mg/day or 400 mg/day, matching placebo, or a fixed dose (20 mg/day) of paroxetine. Study drug was given twice daily for 6 weeks. Efficacy and safety were assessed weekly during the double-blind phase. Subjects completing the study underwent an Exit Interview (“Your Health and Well-Being”) and completed an Assessment of Benefits of Clinical-trial Drug-treatment (ABCD) questionnaire (U.S. sites only).

[2] = system: C57BL/6J, AKR/J and DBA/2J mice; assay: Sleep onset and vigilance states in three inbred mouse strains after IP injection
Protocol: At least 7 adult male mice of inbred strains C57BL/6J, AKR/J, and DBA/2J were recorded in 2 sessions of 72 continuous hours. The first 24 h in each session are considered as baseline followed the next day by the saline injection and the next day by 150 mg/kg of the test compound in the first session and 5 mg/kg d-amphetamine in the second session. The two sessions were separated by 7 days (wash-out period) and all injections were intraperitoneal (IP) and performed at light onset (9 am) in a volume of 5 ml/kg.

[3] = system: male adult Sprague Dawley rats; assay: Sleep-wake organization (EEG/EOG/EMG) in rats after acute i.p. administration; conditions: for Duration Active wake / Duration Deep sleep / Duration Intemediate stage / Duration Light sleep / Duration Passive wake / Duration REM sleep / Latency ISWS / Latency REM sleep / Latency dSWS / Shifts: Shift from ISWS to AW / Shifts: Shift from ISWS to PW / Shifts: Shift from REMS to AW / Shifts: Shift from REMS to PW / Shifts: Shift from dSWS to AW / Shifts: Shift from dSWS to PW: rats, mean ± s.e.m of 8 rats; for Duration Active wake / Duration Deep sleep / Duration Intemediate stage / Duration Light sleep / Duration Passive wake / Duration REM sleep: 16 h recording
[4] = system: hypocretin cell ablated narcoleptic mice (prepororexin/ataxin-3 transgenic) and their littermate wild-type mice; assay: Sleep parameters (EEG/EMG polygraph) in narcoleptic and wild-type mice after oral dosing; conditions: for duration of continuous wakefulness: resting period (ZT 2), most wild-type and narcoleptic mice
Excerpt: The polygraph signal (EEG and EMG) was captured with SleepSign (Kissei Comtech), and the sleep stage was visually scored with 10 sec epoch for wakefulness, non-REM sleep and REM sleep. Scoring criteria are: Wakefulness is characterized by desynchronized low-amplitude, mixed frequency (>4 Hz) EEG and high EMG activity. Rhythmic alpha (8-9 Hz) wave (with high EMG activities) may also appear. Non-REM is characterized by synchronized, high-amplitude, low-frequency (0.25-4 Hz) with reduced EMG activity (compared to wakefulness). EEG activity in REM sleep is similar to that in wakefulness, with desynchronized, mixed frequency low amplitude waves. Rhythmic alpha (8-9 Hz) wave with reduced EMG activities may also appear. […] is reduced even further and in many cases, completely absent. Same muscle twitching may be apparent in the EMG trace during REM sleep.
Three drug doses of the test compound (50, 100 and 150 mg/kg PO) plus vehicle, were orally administered at ZT 2 (2 hours after light on) or ZT14 (2 hours after light off), and the effects on sleep were monitored for 6 hours after the drug administration (the sleep data was collected for 30 hours after the drug injection, and are available for further analysis). The doses for modafinil were 50 and 200 mg/kg PO (plus vehicle), and modafinil was also administered at ZT 2 and […]
If the polygraph signals of some mice were not sufficient to score the sleep stage with accuracy (especially bad EMG), data from these animals were excluded, and the minimum of 5 animals (except for the highest dose of the test compound in wild-type mice in dark period, n=4) were included for the data analysis and number of animals were indicated in the figures.
Effects of test compound and modafinil on the amount of wake, non-REM sleep, REM sleep (cumulative seconds), number of episodes for each sleep stage during 6 hours, and mean wake/sleep-bout lengths (seconds) were analyzed in each animal and the mean of each parameter was calculated in each genotype. The effects of compounds on wake and sleep amounts are useful to evaluate the wake promoting potency, and the number of episodes for each sloop stage and the mean wake/sleep bout length are parameters for evaluating the sleep fragmentation. Amphetamine and modafinil, two main wake-promoting compounds currently used for the treatment of EDS associated with various etiologies (narcolepsy, idiopathic hypersomnia and secondary EDS), are known to increase wake time and prolong wake bout length in normal and EDS conditions.
A comparison of the effects between hypocretin deficient and wild-type mice is very useful in determining the wake-promotion of the test compound is dependent on the availability of hypocretins, and if there is a possible change in the sensitivity of the receptive mechanisms of test compound in narcoleptic mice due to the hypocretin ligand deficiency.

[5] = 3 mg/kg i.p., 16 hours recording
[6] = 30 mg/kg i.p., 16-h post-injection

SMILES: NC(=O)OC[C@H](N)Cc1ccccc1 [test compound, (R)-(beta-amino-benzenepropyl) carbamate]
- ABCD questionnaire items (of 51) with statistically significant superiority to placebo ([1]; 200 mg): 14 items
- ABCD questionnaire items (of 51) with statistically significant superiority to placebo ([1]; 400 mg): 8 items
- secondary efficacy variables of mood and well-being ([1]; one or both doses (200 and 400 mg/day), 6 weeks): statistically significantly greater efficacy than placebo
- Insomnia, treatment-emergent adverse event incidence ([1]; target dose 200 mg/day, 6 weeks): 24%
- Insomnia, treatment-emergent adverse event incidence ([1]; target dose 400 mg/day, 6 weeks): 35%
- genotype effect on wake time referenced to sleep latency after saline ([2]; 150 mg/kg IP): no genotype effect
- duration of induced continuous wakefulness (sleep latency) ([2]; 150 mg/kg IP at light onset, three inbred strains): up to 4.5 hours
- wakefulness duration compared with d-amphetamine 5 mg/kg ([2]; 150 mg/kg IP, hourly wakefulness over 72 h recordings): significantly longer wakefulness duration than amphetamine
- increase in total light sleep vs vehicle [3, 5]: +26%
- increased drive to wakefulness from deep sleep vs vehicle [3, 5]: +15%
- increased drive to wakefulness from light sleep vs vehicle [3, 5]: +46%
- increase in shifts from REM sleep towards active wakefulness vs vehicle ([3]; 10 mg/kg i.p.): +16%
- increase in total duration of light sleep vs vehicle ([3]; 10 mg/kg i.p.): +24%
- change in number of epochs of REM sleep ([3]; 30 mg/kg i.p.): −24%
- change in number of epochs of active wakefulness ([3]; 30 mg/kg i.p.): +19%
- change in number of epochs of light sleep ([3]; 30 mg/kg i.p.): −23%
- change in number of epochs of passive wakefulness ([3]; 30 mg/kg i.p.): −30%
- mean durations of sleep wake states ([3]; 30 mg/kg i.p.): not modified
- onset of activity after administration ([3]; 30 mg/kg i.p.): ~30 min
- change of total time spent in REM sleep vs vehicle [3, 6]: −25%
- change of total time spent in active wakefulness vs vehicle [3, 6]: +19%
- change of total time spent in light sleep vs vehicle [3, 6]: −20%
- change of total time spent in passive wakefulness vs vehicle [3, 6]: −29%
- overall profile of effects ([3]; 30 mg/kg i.p., beginning of the administration): psychostimulant-like properties
- duration of rebound increase in deep sleep ([3]; 30 mg/kg i.p., starting 3 hours after administration): about 7 hours
- duration of central activity after injection ([3]; i.p.): at least 4 hours
- time of peak in effect post administration ([3]; i.p.): around 2 hours
- Duration Active wake ([3]; 3 mg/kg i.p.): 290.0 ± 11.2 min
- Duration Deep sleep ([3]; 3 mg/kg i.p.): 125.0 ± 24.6 min
- Duration Intemediate stage ([3]; 3 mg/kg i.p.): 2.9 ± 0.7 min
- Duration Light sleep ([3]; 3 mg/kg i.p.): 374.7 ± 16.6 min
- Duration Passive wake ([3]; 3 mg/kg i.p.): 79.5 ± 10.7 min
- Duration REM sleep ([3]; 3 mg/kg i.p.): 84.0 ± 5.4 min
- Latency ISWS ([3]; 3 mg/kg i.p.): 15.6 ± 4.1 min
- Latency REM sleep ([3]; 3 mg/kg i.p.): 66.0 ± 11.8 min
- Latency dSWS ([3]; 3 mg/kg i.p.): 42.0 ± 8.5 min
- Shifts: Shift from ISWS to AW ([3]; 3 mg/kg i.p.): 217.8 ± 55.5 number
- Shifts: Shift from ISWS to PW ([3]; 3 mg/kg i.p.): 78.1 ± 35.8 number
- Shifts: Shift from REMS to AW ([3]; 3 mg/kg i.p.): 78.0 ± 21.6 number
- Shifts: Shift from REMS to PW ([3]; 3 mg/kg i.p.): 3.7 ± 3.0 number
- Shifts: Shift from dSWS to AW ([3]; 3 mg/kg i.p.): 9.7 ± 6.6 number
- Shifts: Shift from dSWS to PW ([3]; 3 mg/kg i.p.): 6.6 ± 5.9 number
- Duration Active wake ([3]; 10 mg/kg i.p.): 305.5 ± 15.1 min
- Duration Deep sleep ([3]; 10 mg/kg i.p.): 104.0 ± 19.3 min
- Duration Intemediate stage ([3]; 10 mg/kg i.p.): 5.2 ± 0.7 min
- Duration Light sleep ([3]; 10 mg/kg i.p.): 366.6 ± 21.2 min
- Duration Passive wake ([3]; 10 mg/kg i.p.): 73.1 ± 13.2 min
- Duration REM sleep ([3]; 10 mg/kg i.p.): 102.3 ± 4.6 min
- Latency ISWS ([3]; 10 mg/kg i.p.): 30.4 ± 7.9 min
- Latency REM sleep ([3]; 10 mg/kg i.p.): 87.5 ± 14.5 min
- Latency dSWS ([3]; 10 mg/kg i.p.): 127.2 ± 67.1 min
- Shifts: Shift from ISWS to AW ([3]; 10 mg/kg i.p.): 204.5 ± 56.4 number
- Shifts: Shift from ISWS to PW ([3]; 10 mg/kg i.p.): 84.4 ± 40.5 number
- Shifts: Shift from REMS to AW ([3]; 10 mg/kg i.p.): 94.1 ± 24.0 number
- Shifts: Shift from REMS to PW ([3]; 10 mg/kg i.p.): 8.9 ± 6.7 number
- Shifts: Shift from dSWS to AW ([3]; 10 mg/kg i.p.): 4.2 ± 3.1 number
- Shifts: Shift from dSWS to PW ([3]; 10 mg/kg i.p.): 12.5 ± 8.5 number
- Duration Active wake ([3]; 30 mg/kg i.p.): 371.6 ± 7.7 min
- Duration Deep sleep ([3]; 30 mg/kg i.p.): 214.9 ± 15.6 min
- Duration Intemediate stage ([3]; 30 mg/kg i.p.): 4.0 ± 1.0 min
- Duration Light sleep ([3]; 30 mg/kg i.p.): 235.8 ± 14.3 min
- Duration Passive wake ([3]; 30 mg/kg i.p.): 57.3 ± 4.7 min
- Duration REM sleep ([3]; 30 mg/kg i.p.): 72.9 ± 7.3 min
- Latency ISWS ([3]; 30 mg/kg i.p.): 73.6 ± 25.7 min
- Latency REM sleep ([3]; 30 mg/kg i.p.): 251.8 ± 32.0 min
- Latency dSWS ([3]; 30 mg/kg i.p.): 174.6 ± 12.3 min
- Shifts: Shift from ISWS to AW ([3]; 30 mg/kg i.p.): 221.9 ± 58.3 number
- Shifts: Shift from ISWS to PW ([3]; 30 mg/kg i.p.): 74.2 ± 29.0 number
- Shifts: Shift from REMS to AW ([3]; 30 mg/kg i.p.): 65.1 ± 21.8 number
- Shifts: Shift from REMS to PW ([3]; 30 mg/kg i.p.): 4.1 ± 3.2 number
- Shifts: Shift from dSWS to AW ([3]; 30 mg/kg i.p.): 8.7 ± 5.3 number
- Shifts: Shift from dSWS to PW ([3]; 30 mg/kg i.p.): 17.6 ± 12.0 number
- duration of continuous wakefulness ([4]; 50 mg/kg PO): up to 3 hours
- duration of continuous wakefulness ([4]; 100 mg/kg PO): ≤ 4 h
- duration of continuous wakefulness ([4]; 150 mg/kg PO): ≤ 5 h
- bouts of wakefulness ([4]; 50-150 mg/kg PO, wild-type and narcoleptic mice): significantly increased bouts of wakefulness
- effect on wakefulness ([4]; active (dark) period, ZT14, PO): dose-dependently increased wakefulness
- wake amounts in narcoleptic mice relative to wild-type mice ([4]; active period, 100 and 150 mg/kg PO): brought up to the levels of wild-type mice
- amounts of non-REM and REM sleep in narcoleptic mice relative to wild-type mice ([4]; active period, PO): brought down to the levels of wild-type mice
- Non-REM and REM sleep during the period of continuous wakefulness ([4]; resting period, 50, 100, 150 mg/kg PO): completely suppressed
- EEG patterns after administration ([4]; resting period, 50-150 mg/kg PO): no abnormal EEG patterns
- effect on REM sleep ([4]; resting period, PO): potently reduced REM sleep
- wake-promoting effects ([4]; resting period, wild-type and hypocretin-deficient narcoleptic mice, PO): Very potent wake-promoting effects
